# Test results taken from patent US4681877A, “Pivaloyloxymethyl 7-β-[2-(2-amino-4-thiazolyl)-2-methoxyiminoacetamido]-3-(2-amino-1, 3-thiadiazolyl-5-thiomethyl)-3-cepheme-4-carboxylate and pharmaceutical composition containing the same” (Kureha Kagaku Kogyo Kabushiki Kaisha, priority 1982, dated 1987).
# Read-outs that look alike come from different tables or passages of the source.
# Experiments:
# [1] = test system: Serratia marcescens IAM 1223; assay: Minimum growth-inhibition concentration (MIC), Serratia marcescens IAM 1223; assay type: cell-based; details: Mueller-Hinton agar, 18 to 24 hours at 37° C.
# Experimental: (§1) The minimum inhibiting concentration(MIC) of the compound represented by the formula(I) and the compound represented by the formula(V) was measured according to the standard method of Japan Society of Chemotherapy against each of the following bacterial species:
# (§2) Anti-bacterial activity of the compounds respectively produced in Examples 1, 2 and 3 was determined according to the standard method of Japanese Society of Chemotherapy as follows.
# (§3) Each of the following bacterial strains was inoculated in Mueller-Hinton's culture medium and cultured for 18 to 48 hours at 37° C. to obtain a standard bacterial liquid containing 10^6 cells/ml.
# (§4) Separately, agar plates were prepared by adding each of the solutions of each of the compounds respectively produced in Examples, 1, 2 and 3 at predetermined concentrations in amount of one ninth by weight to Mueller-Hinton's culture medium.
# [2] = Stability in blood of living body: serum concentration after injection; assay type: in vivo, male Wistar rats; details: rat, iv, caudal vein, Wistar rats, read-out: Concentration in the serum specimen
# Experimental: A solution of sodium salt (the product in Example 2) of the compound represented by the formula(I) in an aqueous physiological solution was injected into each of 5 healthy male Wistar rats (body weight of about 180 g) after 6 to 7 weeks of birth from the caudal vein by one shot method. The same procedure was carried out by using a solution of the sodium salt in a 1/15 M phosphoric acid buffer of pH of 7.0. After 30 min, 2 hours and 4 hours of the injection, the blood of the rate was collected from the cut carotid artery of the rat, and the collected blood was subjected to centrifugation for 15 min at 3000 rpm to obtain the three kinds of serum specimens (collected after 30 min, 2 hours and 4 hours after the injection).
# Separately, flat culture plates were made by adding 0.05 % by weight of Escherichia coli IFO 12734 into Heart-infusion agar culture medium, and a penicillin cup of 8 mm in diameter was placed on the flat culture medium, and each of the serum specimen, each of the blood specimen, 1/15 M phosphoric acid buffer solution or a 50% acetone-phosphoric acid buffer solution was introduced into the cup. The thus prepared inoculant was left for 30 min to 1 hour at room temperature and incubated for a night at 37° C.
# Then, the diameter of the growth-inhibition circle around the penicillin cup on each flat culture plate was determined, and according to the preliminarily prepared graph showing the relationship between the diameter of the growth-inhibition circle and the concentration of the sodium salt in the serum specimen, the blood specimen, 1/15 M phosphoric acid buffer solution and 50% acetone-phosphoric acid buffer solution, the concentration of the sodium salt in the serum specimen was obtained as: […]
# [3] = test system: Staphylococcus aureus IAM 1011; assay: Minimum growth-inhibition concentration (MIC), Staphylococcus aureus IAM 1011; assay type: cell-based; details: Mueller-Hinton agar, 18 to 24 hours at 37° C.
# Experimental: as §1, §2, §3, §4
# E. coli W 3636 = assay: Minimum growth-inhibition concentration (MIC), E. coli W 3636; assay type: cell-based, Escherichia coli; details: Mueller-Hinton agar, 18 to 24 hours at 37° C.
# Experimental: as §1, §2, §3, §4
# E. coli IFO 12734 = assay: Minimum growth-inhibition concentration (MIC), E. coli IFO 12734; assay type: cell-based, Escherichia coli; details: Mueller-Hinton agar, 18 to 24 hours at 37° C.
# Experimental: as §1, §2, §3, §4
# [4] = test system: Pseudomonas aeruginosa IAM 1514; assay: Minimum growth-inhibition concentration (MIC), Pseudomonas aeruginosa IAM 1514; assay type: cell-based; details: Mueller-Hinton agar, 18 to 24 hours at 37° C.
# Experimental: as §1, §2, §3, §4
# [5] = Stability to rat liver homogenate (S-9 mix): rate of maintaining the antibacterial activity; assay type: in vitro ADME; details: for remaining at 20 min: rat
# Experimental: For verifying the stability of the compound represented by the formula (I), 7-beta-[2-(2-amino-4-thiazolyl)-2-methoxyiminoacetamindo]-3-(-2-amino-1,3,4-thiadiazoyl-5-thiomethyl)-3-cepheme -4-carboxyulic acid in living body of the host, the following model experiment was carried out.
# (§5) As a metabolism-activating enzyme, a rat liver homogenate (S-9, manufactured by Oriental Yeast Co.) was used in the following composition(referred to as S-9 mix, hereinafter):
# (§6) After mixing 0.1 ml of a solution of the compound to be tested with 0.9 ml of S-9 mix or 0.9 ml of 0.1 M phosphoric acid buffer solution, the mixture was subjected to shaking culture for 20 min at 37° C. to prepare a test reaction solution for use in the following experiment.
# (§7) Staphylococcus aureus IAM 1011 was inoculated to Mueller-Hinton'culture medium and the inoculum was cultured for 18 hours at 37° C. and after adjusting the number of the bacterial cells to 10^8 /ml of the culture medium, 50 times by weight of the Mueller-Hinton agar culture medium were added to the cultured medium to prepare flat culture plates. After placing a penicillin-cup of 8 mm in diameter on each of the thus prepared flat culture plates, 0.1 ml of the above-mentioned test reaction solution was introduced into the penicillin cup, and after leaving the system for 2 hours at 4° C., the system was incubated for 18 hours at 37° C., and the diameter of the growth-inhibition circle around the cup on the culture plate was determined.
# By applying each of the thus determined diameters of the respective growth-inhibition circles on a diagram preliminarily prepared to indicate the relationship between the diameter of the growth-inhibition circle and the concentration of the compound in the culture medium before carrying out the culture, the concentration of the compound in the culture medium in the presence of S-9 mix was obtained(referred to as C2). […]
# [6] = test system: Proteus vulgaris IAM 1025; assay: Minimum growth-inhibition concentration (MIC), Proteus vulgaris IAM 1025; assay type: cell-based; details: Mueller-Hinton agar, 18 to 24 hours at 37° C.
# Experimental: as §1, §2, §3, §4
# [7] = Acute mammalian toxicity (LD50, 7-day mortality); assay type: in vivo; details: mouse, in vivo
# Experimental: (§8) Acute mammalian toxicity of the compound represented by the formula(I) and the compound represented by the formula(V) was investigated by orally or intraperitoneally administering a series of aqueous physiological saline solution containing each of the above-mentioned compounds to groups of ICR-JCL mice, and observing the toxic symptoms appearing on the mice including the mortality for 7 days. Then, from the cumulative mortality, LD50 values were calculated by Litchfield-Wilcoxon's graphical method.
# ICR-JCL mice = assay: Acute mammalian toxicity (LD50, 7-day mortality); assay type: in vivo; details: autopsy after 7 days, dead and live mice
# Experimental: as §8
# test bacterial species = assay: Anti-bacterial activity (MIC) in general, all test species; assay type: cell-based; details: against the test bacterial species
# Experimental: as §1
# Escherichia coli IFO 12734
# Staphylococcus aureus IAM 1011
# Proteus vulgaris IAM 1025
# Pseudomonas aeruginosa IAM 1514 and
# Serratia marcescens IAM 1223
# Escherichia coli IFO = assay: Effects on infectious disease (mice infected with Escherichia coli IFO); assay type: in vivo; details: orally 100 mg/kg just after and 4 hours after inoculation; 7 days
# Experimental: After inoculating a group consisting of 20 mice with Escherichia coli IFO intraperitoneously to be infected, the compound represented by the formula(V) was orally administered to the mice just after and after 4 hours of inoculation at a dose rate of 100 mg/kg body weight, and after 7 days of the administration, the effectiveness of the compound was judged by observing the death rate of each group of mice by the infection.
# In the same manner, after inoculating another group consisting of 20 mice with Escherichia coli IFO intraperitoneously to be infected, the compound represented by the formula(I) was orally administered thereto just after and after 4 hours of inoculation at the dose rate of 100 mg/kg body weight, and after 7 days of the administration, the effectiveness of the compound was judged by observing the rate of survival of the mice.
# Escherichia coli [8] = assay: Effect on the experimental infectious disease on mice; assay type: in vivo, Escherichia coli; ddY-strain SPF mice; details: orally 100 mg/kg, ddY-strain SPF mice, 1.4×10^8 cells E. coli i.p.
# Experimental: To each of the two groups of ddY-strain SPF mice, 1.4×10^8 cells of Escherichia coli was intraperitoneously inoculated to be infected, and just after or after 4 hours of the inoculation, the compound represented by the formula (I) was orally administered at a dose rate of 100 mg/kg.
# Lactobacillus bifidus = test system: Lactobacillus bifidus; parameters: species or system Lactobacillus bifidus; female ICR mice; details: mouse, in vivo, po, 100 mg/kg
# Experimental: (§9) The above-mentioned pivaloyloxymethyl ester represented by the formula(V) was orally administered for two continued days at a daily dosage of 100 mg/kg body weight to each of five female ICR mice of a group after 6 weeks of birth. Each of the two fecal specimens respectively collected before and after one day of the administration was diluted with 100 times by weight of an anaerobic diluent(a phosphoric buffer solution) and was ground in a mortar, and 0.1 ml of the ground material was smeared on each of the following culture media for the following bacteria and the thus inoculated culture media were incubated under the following conditions. Thereafter, the number of the following bacteria was determined on each culture medium.
# Escherichia coli [9] = assay: Activity against Escherichia coli before and after metabolism by rat liver homogenate; assay type: cell-based
# Experimental: The same test as above was carried on the compound represented by the formula(V). The results obtained were compared to the results of the test (1) on the compound represented by the formula(I) according to the following criterion.
# Taking the diameter of the growth-inhibiting circle due to the compound represented by the formula(I) at the same concentration as 100, and the ratio of the diameter of the growth-inhibiting circle due to the compound represented by the fomula(V) to the diameter of the growth-inhibiting circle due to the compound represented by the formula(I) is represented by the percentages as follows, and the respective signs are attributed to the respective percentage.
# Streptococcus sp. = test system: Streptococcus sp.; parameters: species or system Streptococcus sp.; female ICR mice; details: mouse, in vivo, po, 100 mg/kg
# Experimental: as §9
# Pseudomonas aeruginosa = test system: Pseudomonas aeruginosa; parameters: species or system Pseudomonas aeruginosa; female ICR mice; details: mouse, in vivo, po, 100 mg/kg
# Experimental: as §9
# Lactobacillus sp. = test system: Lactobacillus sp.; parameters: species or system Lactobacillus sp.; female ICR mice; details: mouse, in vivo, po, 100 mg/kg
# Experimental: as §9
# [10] = test system: Staphylococcus aureus IAM 1011; assay: Stability of the compound of formula (V): growth-inhibiting circle with/without S-9 mix; assay type: cell-based; details: formula (I) = 100
# Experimental: as §5, §6, §7
# The same test as above was carried on the compound represented by the formula(V). […]
# Bacterioides sp. = test system: Bacterioides sp.; parameters: species or system Bacterioides sp.; female ICR mice; details: mouse, in vivo, po, 100 mg/kg
# Experimental: as §9
# Escherichia coli [11] = assay: Number of bacterial cells in feces, E. coli; assay type: in vivo, Escherichia coli; female ICR mice; details: after 2 days oral 100 mg/kg; before: 6.4
# Experimental: as §9
# [12] = ip, read-out: LD50 (intraperitoneous)
Structure (SMILES),Minimum growth-inhibition concentration (MIC) on Serratia marcescens IAM 1223 [1],Minimum growth-inhibition concentration (MIC) on Staphylococcus aureus IAM 1011 [3],Minimum growth-inhibition concentration (MIC) on E. coli W 3636 (E. coli W 3636),Minimum growth-inhibition concentration (MIC) on E. coli IFO 12734 (E. coli IFO 12734),Minimum growth-inhibition concentration (MIC) on Pseudomonas aeruginosa IAM 1514 [4],Minimum growth-inhibition concentration (MIC) on Proteus vulgaris IAM 1025 [6],"LD50 at 168 h [7, 12]","LD50 at 168 h ([7]; po, read-out: LD50 (oral))",Autopsy findings (ICR-JCL mice),"Anti-bacterial activity (MIC), in words (test bacterial species)",Rate of survival (Escherichia coli IFO),other results
"CO/N=C(\C(=O)N[C@@H]1C(=O)N2C(C(=O)O)=C(COC(C)=O)CS[C@H]12)c1csc(N)n1 [CEFOTAX ®, reference compound]",0.2,1.56,0.1,< 0.05,50,< 0.05,–,–,–,–,–,concentration at 0.5 h ([2]; 30 min after injection): 7000 ng/mL; concentration at 2 h ([2]; 2 hours after injection): 2500 ng/mL; concentration at 4 h ([2]; 4 hours after injection): 400 ng/mL; remaining at 20 min ([5]; s9): 17%
"CON=C(C(=O)N[C@@H]1C(=O)N2C(C(=O)O)=C(CSc3nnc(N)s3)CS[C@H]12)c1csc(N)n1 [Example 1, 7-beta-[2-(2-amino-4-thiazolyl)-2-methoxyiminoacetamido]-3-(2-amino-1,3,4-thiadiazolyl-5-thiomethyl)-3-cepheme-4-carboxylic acid]",0.2,0.78,0.2,< 0.05,12.5,< 0.05,> 10000 mg/kg,> 10000 mg/kg,No noticeable information,strong and broad anti-bacterial activity,over 55%,"Stability to the action of rat liver homogenate, in words ([5]; S-9 mix): stable; remaining at 20 min ([5]; liver homogenate s-9 mix, S-9 mix, 20 min at 37° C., read-out: Rate of maintaining the antibacterial activity): 80%; Survival on the 7th day of infection (Escherichia coli [8]): more than 55%"
"CON=C(C(=O)N[C@@H]1C(=O)N2C(C(=O)OCOC(=O)C(C)(C)C)=C(CSc3nnc(N)s3)CS[C@H]12)c1csc(N)n1 [Example 3, pivaloyloxymethyl 7-beta-[2-(2-amino-4-thiazolyl) -2-methoxyiminoacetamido]-3-(2-amino-1,3,4,-thiadiazolyl-5-thiomethyl)-3-cepheme-4-carboxylate]",≥ 100,≥ 100,50,12.5,≥ 100,12.5,> 10000 mg/kg,> 10000 mg/kg,No noticeable information,not so small to verify the anti-bacterial activity,over 60%,"log10 value of the number of bacterial cells/g of feces, Lact. bifidus (Lactobacillus bifidus): 8.4 log10 of bacterial cells/g of; Activity against Escherichia coli, in words (Escherichia coli [9]; after metabolized by the rat liver homogenate): active; Activity to Escherichia coli, in words (Escherichia coli [9]; compound itself, without S-9 mix): inactive; log10 value of the number of bacterial cells/g of feces, Streptococcus sp. (Streptococcus sp.): 7.0 log10 of bacterial cells/g of; log10 value of the number of bacterial cells/g of feces, Pse. aeruginosa (Pseudomonas aeruginosa): < 3.0 log10 of bacterial cells/g of; log10 value of the number of bacterial cells/g of feces, Lactobacillus sp. (Lactobacillus sp.): 8.9 log10 of bacterial cells/g of; Ratio of diameter of growth-inhibiting circle to that of formula (I), sign ([10]; added with S-9 mix): +++ (67 to 100); Ratio of diameter of growth-inhibiting circle to that of formula (I), sign ([10]; without addition of S-9 mix): ± (0 to 1); log10 value of the number of bacterial cells/g of feces, Bacterioides sp. (Bacterioides sp.): 8.2 log10 of bacterial cells/g of; log10 value of the number of bacterial cells/g of feces, E. coli (Escherichia coli [11]): 6.5 log10 of bacterial cells/g of"
